Values quoted from earlier work, collected in patent US20210346453A1, “COMPOSITIONS AND METHODS FOR TREATMENT OF COVID-19” (Cognitive Clarity Inc., priority 2020, published 2021).

How the values were obtained:
COVID-19 = conditions: compared to placebo
[1] = system: inflammation in brain (astrocytosis and microgliosis); conditions: plaque-producing transgenic mice, within 3 months of treatment
[2] = system: brain plaques and tangles; conditions: aging brain

Bamlanivimab: monoclonal antibody treatment made by Eli Lilly
risk of being hospitalized or visiting the Emergency Room within 28 days after treatment (COVID-19): significantly reduce

Oc1cc(O)c2c(c1)O[C@H](c1ccc(O)c(O)c1)[C@H](O)[C@H]2c1c(O)cc(O)c2c1O[C@H](c1ccc(O)c(O)c1)[C@H](O)C2 [Proanthocyanidin B2, epicatechin-4β-8-epicatechin]
reduction of inflammation in brain (astrocytosis and microgliosis) [1]: 69%-80.3% | brain plaques and tangles [2]: inhibit and reduce

Oc1cc(O)c2c(c1)O[C@H](c1ccc(O)c(O)c1)[C@H](O)[C@H]2c1c(O)cc(O)c2c1O[C@H](c1ccc(O)c(O)c1)[C@H](O)[C@H]2c1c(O)cc(O)c2c1O[C@H](c1ccc(O)c(O)c1)[C@H](O)C2 [proanthocyanidin C1, epicatechin-4β-8-epicatechin-4β-8-epicatechin]
brain plaques and tangles [2]: inhibit and reduce

Oc1cc(O)c2c(c1)O[C@H](c1ccc(O)c(O)c1)[C@@H](O)[C@@H]2c1c(O)cc(O)c2c1O[C@H](c1ccc(O)c(O)c1)[C@H](O)C2 [proanthocyanidin B4, catechin-4-α-8-epicatechin]
brain plaques and tangles [2]: inhibit and reduce

Oc1ccc([C@H]2Oc3cc(O)cc(O)c3[C@H](c3c(O)cc(O)c4c3O[C@H](c3ccc(O)c(O)c3)[C@H](O)C4)[C@H]2O)cc1 [epiafzelechin-4β-8-epicatechin]
brain plaques and tangles [2]: inhibit and reduce
